Reference: patent US10758627B2, “Peptide-polynucleotide complex for polynucleotide transfection” (Washington University, priority 2015, dated 2020)

Tested on: B16 cells stably expressing GFP-PEST
Test: Screening for siRNA knockdown: delivery of GFP siRNA for knockdown of GFP in B16 GFP cells
Assay type: cell-based
Conditions: for Able to transfect?: peptide/GFP siRNA particle
Procedure: Knockdown of B16 cells stably expressing GFP-PEST allowed quick screening for effective siRNA knockdown of GFP expression because the PEST sequence shortens GFP half-life from 26 to 10 hours. Melittin derivatives were chosen based on modifications designed to decrease cytotoxicity as well as improve interactions with oligonucleotides. These peptides were screened for their ability to deliver GFP siRNA for the knockdown of GFP in B16 GFP cells (Table 1, FIG. 1).
The melittin derivatives were formulated by Genscript (Piscataway, N.J.), dissolved at 10 mM in RNAse/DNAse free water (Sigma, St. Louis, Mo.) and stored in 4 μl aliquots at −80° C. before use. Transfection complexes were prepared by diluting the peptide 1:200 in phosphate buffered saline (PBS, Sigma), vortexed for 30 seconds, followed by addition of the appropriate amount of siRNA (stock concentration of 10 μM in 1× siRNA buffer (Thermo)) and incubated for 40 minutes at 37° C. with shaking in an Eppendorf Thermomixer R. Resulting nanoparticles were analyzed for siRNA incorporation by resolution on a 12% polyacrylamide gel followed by ethidium bromide staining. Dynamic light scattering (DLS) and zeta potential measurements were performed on a Zeta Plus particle sizer (Brookhaven Instruments, Newton, Mass.). Serum stability analysis was performed by incubating freshly formed peptide/siRNA nanoparticles in 10 mg/ml Human Serum Albumin (HSA, Sigma) overnight followed by DLS and zeta potential measurements.
B16F10 and RAW264.7 (ATCC, Manassas, Va.) cell lines can be maintained under standard cell culture conditions (37° C. and 5% CO2 in a humidified incubator) in DMEM (Gibco, Carlsbad, Calif.) supplemented with 10% fetal bovine serum (Gibco). B16F10 cells stably expressing GFP can be produced as follows. B16F10 can be transfected (Lipofectamine 2000, Invitrogen) with a fusion of EGFP (pEGFP-N1, Clontech) and the PEST sequence from mouse ornithine decarboxylase (S421-V461) in pEF6V5HisTOPO (Invitrogen). Cells are selected for four rounds with cell sorting by flow cytometry without antibiotic selection. Typically, an aliquot of cells can be maintained in continuous culture for a month without a noticeable change in EGFP expression level. Human umbilical vein endothelial cells (HUVECs) can be purchased from Lifeline Technologies (Frederick, Md.) and cultured in VascuLife Basal Medium (Lifeline Technologies) supplemented with 5 ng/mL EGF, 5 ng/ml bFGF, 15 ng/mL IGF-1, 50 μg/mL ascorbic acid, 1 μg/mL hydrocortisone hem isuccinate, 0.75 U/mL Heparin Sulfate, 10 mM L-glutamine, 2% fetal bovine serum in accordance with manufacturer instructions.
For transfection, cells can be plated in 6 well plates 12 hours before transfection and cultured under standard cell culture conditions. Peptide/siRNA nanoparticles are prepared and incubated with cells for 4 hours in a final volume of 1 mL Optimem I (Gibco) or appropriate media supplemented with 10% FBS. Transfections are scaled accordingly for cells plated in 12 well plates based on cell culture surface area. After transfection, cells are washed twice with PBS and incubated with standard cell culture medium for another 24-72 hours before analysis. Lipofectamine 2000 can be used in accordance with the manufacturer's protocol. Briefly, Lipofectamine 2000 is diluted in Optimem I to a final concentration of 8.4 μg/ml and incubated at room temperature for 15 minutes. siRNA is then added to the diluted lipid and incubated for another 40 minutes before dilution to 1 mL total volume with Optimem I for transfection. Suitable eGFP siRNA can be purchased from Sigma. siGENOME mouse MAPK9 siRNA1, siGENOME mouse STAT3 siRNA2, and siGENOME human STAT3 siRNA2 gene specific siRNAs can be purchased from Dharmacon (Lafayette, Colo.). Scrambled siRNA can be purchased from Qiagen (Valencia, Calif.).

[1] = charge ratio (+/−) 6:1 (peptide/siRNA 28:1 to 62:1 depending on peptide)
[2] = charge ratio (+/−) 12:1 (peptide/siRNA 56:1 to 124:1 depending on peptide)
[3] = charge ratio (+/−) 24:1 (peptide/siRNA 112:1 to 248:1 depending on peptide)
[4] = ratio of peptide:polynucleotide between 50:1 and 200:1

| Compound | Able to transfect? [1] | Able to transfect? [2] | Able to transfect? [3] | ability to transfect (ratio of 50:1) | ability to transfect (ratio of peptide:polynucleotide less than 50:1) | GFP knockdown [4] | ability to transfect [4] | toxicity to cells in the tested concentration range (B16 GFP cells, concentration range of the screen) |
| --- | --- | --- | --- | --- | --- | --- | --- | --- |
| VLTTGLPALISWIKRKRQHRWRRRR [Peptide 5RWRH] | Yes | No | No | did not work | able to transfect |  |  |  |
| VLTTGLPALISWIRRRHRRHC [Peptide 5RHH] | Yes | Yes | Yes |  |  | exhibited GFP knockdown | able to transfect |  |
| VLTTGLPALISWIKRKRQQC [Peptide 5C] | No | No | No |  |  |  |  |  |
| CC[C@H](C)[C@H](NC(=O)CN)C(=O)NCC(=O)N[C@@H](C)C(=O)N[C@H](C(=O)N[C@@H](CC(C)C)C(=O)N[C@@H](CCCCN)C(=O)N[C@H](C(=O)N[C@@H](CC(C)C)C(=O)N[C@H](C(=O)N[C@H](C(=O)NCC(=O)N[C@@H](CC(C)C)C(=O)N1CCC[C@H]1C(=O)N[C@@H](C)C(=O)N[C@@H](CC(C)C)C(=O)N[C@H](C(=O)N[C@@H](CO)C(=O)N[C@@H](Cc1c[nH]c2ccccc12)C(=O)N[C@H](C(=O)N[C@@H](CCCCN)C(=O)N[C@@H](CCCNC(=N)N)C(=O)N[C@@H](CCCCN)C(=O)N[C@@H](CCCNC(=N)N)C(=O)N[C@@H](CCC(N)=O)C(=O)N[C@@H](CCC(N)=O)C(N)=O)[C@@H](C)CC)[C@@H](C)CC)[C@@H](C)O)[C@@H](C)O)C(C)C)C(C)C [Melittin] | No | Toxic | Toxic |  |  |  |  | too toxic |
| VLTTGLPALISWIKRKRQQRWRRRR [Peptide 5RWR] | No | No | No |  |  |  |  |  |
